Consider one molecule from US20230382919A1, “OXA- IBOGAINE INSPIRED ANALOGUES FOR TREATMENT OF NEUROLOGICAL AND PSYCHIATRIC DISORDERS” (The Trustees of Columbia University in the City of New York, priority 2021, published 2023).

Each structure is given as a SMILES string.

The test system of the test is C57BL/6J mice. Kind of test: Tail-flick test. It is filed as in vivo. Conditions: Mus musculus, sc, 10-30 mg/kg dose range. As to the method:
C57BL/6J (8-12 weeks, 22-31 g) were purchased from the Jackson Laboratory (Bar Harbor, ME) and housed 5 mice per cage with food and water available ad libitum. Mice were maintained on a 12-hr light/dark cycle (lights on 7:00-19:00) and all testing was done in the light cycle. Temperature was kept constant at 22±2° C., and relative humidity was maintained at 50±5%. Mice were moved to the testing room 30 minutes before the experiment to allow for acclimation. The body weight of each mouse and base tail-flick value were recorded. Mice were administered a 1 mg/kg s.c. dose of compound solution (volume of injection 220-310 μL based on body weight). After injection mice were returned to the home cage and allowed to rest for 30 minutes. Thirty minutes post injection the tail-flick measurement was taken using thermal stimulation via IR on a Ugo Basile unit set to 52 PSU (ten seconds was used as a maximum latency to prevent tissue damage). Mice were then administered 3 mg/kg s.c. dose, allowed to rest for 30 minutes, followed by another tail-flick measurement. […] Tail-flick latencies for the different doses were expressed as percentage of maximum potential effect (% MPE) by subtracting the experimental value by the base tail flick value then dividing by the difference between the maximum possible latency (10 seconds) and the base tail-flick value and finally multiplying by 100. […]

Broadly, the ED50 is the dose at which the effect has come halfway, by size or by number of responders. A low value points to an effect at a small dose. In turn, `c1ccc2c3c([nH]c2c1)C1CCCN(CC3)C1` (stereo not shown) [Compound 61, 1,4,5,6,7,8-hexahydro-2H-3,7-methanoazonino[5,4-b]indole] had an ED50 of 16.5 mg/kg.
